Source: BindingDB's records for doi:10.1016/0014-5793(93)80368-5 (University of Heidelberg Zmbh, 1993)

The compounds below were run against 5-hydroxytryptamine receptor 5B (Rattus norvegicus, UniProt P35365).
Sequence of 5-hydroxytryptamine receptor 5B (P35365 whole entry): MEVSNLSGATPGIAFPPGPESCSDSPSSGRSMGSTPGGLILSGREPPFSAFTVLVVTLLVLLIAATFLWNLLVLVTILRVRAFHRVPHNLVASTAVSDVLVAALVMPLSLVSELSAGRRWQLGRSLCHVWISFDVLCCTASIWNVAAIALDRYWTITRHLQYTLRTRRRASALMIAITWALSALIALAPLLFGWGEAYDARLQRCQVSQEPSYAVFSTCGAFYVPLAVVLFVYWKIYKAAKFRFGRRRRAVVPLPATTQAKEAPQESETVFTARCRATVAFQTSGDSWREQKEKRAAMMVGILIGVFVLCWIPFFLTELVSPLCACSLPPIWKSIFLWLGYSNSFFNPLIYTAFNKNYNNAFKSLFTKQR
Work on `O=C(CCCN1CCC2(CC1)C(=O)NCN2c1ccccc1)c1ccc(F)cc1` [8-[4-(4-fluorophenyl)-4-oxidanylidene-butyl]-1-phenyl-1,3,8-triazaspiro[4.5]decan-4-one] yielded a Ki of 1000 nM.
In the case of `CCN(CC)C(=O)[C@@H]1C=C2c3cccc4[nH]cc(c34)C[C@H]2N(C)C1` [(4R,7R)-N,N-diethyl-6-methyl-6,11-diazatetracyclo[7.6.1.0^{2,7}.0^{12,16}]hexadeca-1(16),2,9,12,14-pentaene-4-carboxamide], the Ki is reported as 3.2 nM.
Work on `CN1CC(C(=O)N[C@]2(C)O[C@@]3(O)C4CCCN4C(=O)[C@H](Cc4ccccc4)N3C2=O)CC2c3cccc4[nH]cc(c34)CC21` (stereo partly drawn) [7-Methyl-4,6,6a,7,8,9,10,10a-octahydro-indolo[4,3-fg]quinoline-9-carboxylic acid ((2R,5S,10bS)-5-benzyl-10b-hydroxy-2-methyl-3,6-dioxo-octahydro-oxazolo[3,2-a]pyrrolo[2,1-c]pyrazin-2-yl)-amide] yielded a Ki of 31 nM.
`NCCc1c[nH]c2ccc(OCC(=O)NCC(=O)N[C@@H](Cc3ccc(O)cc3)C(N)=O)cc12` gave a Ki of 582 nM.
Work on `O=C(c1ccc(F)cc1)C1CCN(CCn2c(=O)[nH]c3ccccc3c2=O)CC1` [3-(2-{4-[(4-fluorophenyl)carbonyl]piperidin-1-yl}ethyl)-1,2,3,4-tetrahydroquinazoline-2,4-dione] yielded a Ki of 1000 nM.
In the case of `CCCN(CCC)C1CCc2cccc(O)c2C1` (stereo not given), the Ki is reported as 46 nM.
`CC(C)NCC(O)COc1cccc2[nH]ccc12` (stereo not given) [LB-46] gave a Ki of 1000 nM.
Work on `CC[C@@H](CO)NC(=O)[C@@H]1C=C2c3cccc4c3c(cn4C)C[C@H]2N(C)C1` yielded a Ki of 40.7 nM.
`CN1CCC(=C2c3ccccc3C=Cc3ccccc32)CC1` [5-(1-methylpiperidylidene-4)-5H-dibenzo(a,d)cyclopheptene] gave a Ki of 117 nM.
Compound `CNS(=O)(=O)Cc1ccc2[nH]cc(CCN(C)C)c2c1` [Sumax] has a Ki of 807 nM.
